Test results as given in US6737383B1, “Herbicidal oxadiazolidines” (priority 1999, dated 2004).

Legend:
[1] = test system: green foxtail; test: Test E green foxtail; assay type: in vivo, Setaria viridis; conditions: Preemergence
[2] = test system: wild oat; test: Test E wild oat; assay type: in vivo, Avena fatua; conditions: Preemergence; Rate 1000 g/ha; 0 to 100 scale where 0 is no effect and 100 is complete control
[3] = test system: winter wheat; test: Test E winter wheat; assay type: in vivo, Triticum aestivum; conditions: Postemergence
Outline: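 For postemergence, sowings are timed so plants reach the 1- to 4-leaf stage at spraying. Test compound is applied in a surfactant-containing solvent mixture that is non-phytotoxic. Response is judged by eye against untreated controls after approximately 21 to 28 days.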

[4] = test system: blackgrass; test: Test B pre/postemergence blackgrass; assay type: in vivo, Alopecurus myosuroides
Outline: (§1)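 Test chemicals in a non-phytotoxic solvent mixture with surfactant were sprayed preemergence onto planted seeds and postemergence onto plants 2 to 18 cm tall (1- to 4-leaf stage). After twelve to sixteen days in a greenhouse, injury was visually rated against untreated controls from 0 (no effect) to 10 (complete control).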

[5] = test system: blackgrass; test: Test E blackgrass; assay type: in vivo, Alopecurus myosuroides; conditions: Preemergence
[6] = test system: Italian ryegrass; test: Test E Italian ryegrass; assay type: in vivo, Lolium multiflorum; conditions: Preemergence
[7] = test system: winter barley; test: Test E winter barley; assay type: in vivo, Hordeum vulgare; conditions: Preemergence
[8] = test system: crabgrass; test: Test B pre/postemergence crabgrass; assay type: in vivo, Digitaria sanguinalis
Outline: as §1

[9] = test system: morningglory; test: Test B pre/postemergence morningglory; assay type: in vivo, Ipomoea hederacea
Outline: as §1

[10] = test system: winter wheat; test: Test E winter wheat; assay type: in vivo, Triticum aestivum; conditions: Preemergence
[11] = test system: bamyardgrass; test: Test B flood test barnyardgrass; assay type: in vivo, Echinochloa crus-galli
Outline: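 Plants were grown to the 2-leaf stage before treatment with test chemical, then held in a greenhouse for twelve to sixteen days. Injury was visually rated against untreated controls on a 0–10 scale, where 0 is no effect and 10 is complete control.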

[12] = Rate 1000 g/ha, 0 to 100 scale where 0 is no effect and 100 is complete control
[13] = Postemergence, Rate 62 g/ha, scale 0 to 10, 0 is no effect, 10 is complete control
[14] = Postemergence, Rate 125 g/ha, scale of 0 to 10 where 0 is no effect and 10 is complete control
[15] = Postemergence, Rate 250 g/ha, scale 0 to 10, 0 no effect, 10 complete control
[16] = Preemergence, Rate 62 g/ha, scale 0 to 10 (0 no effect, 10 complete control)
[17] = Preemergence, Rate 125 g/ha, scale 0 to 10 (0 no effect, 10 complete control)
[18] = Preemergence, Rate 250 g/ha, scale of 0 to 10 where 0 is no effect and 10 is complete control
[19] = Preemergence, Rate 500 g/ha, scale 0 (no effect) to 10 (complete control)
[20] = Rate 500 g/ha, Postemergence, scale 0 to 10, 0 no effect, 10 complete control
[21] = Postemergence, Rate 62 g/ha, scale of 0 to 10, 0 is no effect, 10 is complete control
[22] = Postemergence, Rate 125 g/ha, scale 0 to 10, 0 is no effect, 10 is complete control
[23] = Postemergence, Rate 500 g/ha, scale 0 to 10, 0 is no effect, 10 is complete control
[24] = Preemergence, Rate 62 g/ha, scale of 0 to 10 where 0 is no effect and 10 is complete control
[25] = Preemergence, Rate 125 g/ha, scale 0 to 10, 0 is no effect, 10 is complete control
[26] = Rate 250 g/ha, Postemergence, scale of 0 to 10 where 0 is no effect and 10 is complete control
[27] = Preemergence, Rate 500 g/ha, scale of 0 to 10 where 0 is no effect and 10 is complete control

## Cc1ccccc1Cn1c(=O)on(C(=O)N(c2ccc(F)cc2)C(C)C)c1=O [Compound 88]
[1]; Rate 250 g/ha, 0 to 100 scale
  Plant response rating, Green foxtail: 60
[1]; [12]
  Plant response rating, Green foxtail: 85
[2]
  Plant response rating, Wild oat: 20
[3]; Rate 250 g/ha, 0 to 100 scale (0 no effect, 100 complete control)
  Plant response rating, Wheat (winter): 0
[3]; Rate 1000 g/ha, 0 to 100 scale, 0 is no effect and 100 is complete control
  Plant response rating, Wheat (winter): 10
[4]; [13]
  Blackgrass plant response rating: 2
[4]; [14]
  Blackgrass plant response rating: 5
[4]; [15]
  Blackgrass plant response rating: 6
[4]; [16]
  Blackgrass plant response rating: 1
[4]; [17]
  Plant response rating, Blackgrass: 4
[4]; [18]
  Plant response rating, Blackgrass: 4
[4]; [19]
  Blackgrass plant response rating: 6
[4]; [20]
  Blackgrass plant response rating: 6
[5]; Rate 250 g/ha, 0 to 100 scale
  Plant response rating, Blackgrass: 50
[5]; [12]
  Plant response rating, Blackgrass: 50
[6]; Rate 250 g/ha, 0 to 100 scale
  Plant response rating, I. Ryegrass: 10
[6]; [12]
  Plant response rating, I. Ryegrass: 50
[7]; Rate 250 g/ha, 0 to 100 scale
  Plant response rating, Barley (winter): 0
[7]; [12]
  Plant response rating, Barley (winter): 0
[8]; [13]
  Crabgrass plant response rating: 0
[8]; [14]
  Crabgrass plant response rating: 0
[8]; [15]
  Crabgrass plant response rating: 9
[8]; [16]
  Crabgrass plant response rating: 5
[8]; [17]
  Plant response rating, Crabgrass: 7
[8]; [18]
  Plant response rating, Crabgrass: 10
[8]; [19]
  Crabgrass plant response rating: 10
[8]; [20]
  Crabgrass plant response rating: 9
[9]; [13]
  Morningglory plant response rating: 8
[9]; [14]
  Morningglory plant response rating: 10
[9]; [15]
  Morningglory plant response rating: 10
[9]; [16]
  Morningglory plant response rating: 0
[9]; [17]
  Plant response rating, Morningglory: 0
[9]; [18]
  Plant response rating, Morningglory: 0
[9]; [19]
  Morningglory plant response rating: 0
[9]; [20]
  Morningglory plant response rating: 10
[10]; Rate 250 g/ha, 0 to 100 scale
  Plant response rating, Wheat (winter): 0
[10]; [12]
  Plant response rating, Wheat (winter): 10

## CC(C)N(C(=O)n1oc(=O)n(CCC2OCCO2)c1=O)c1ccc(Cl)cc1 [Compound 531]
[11]; Rate 62 g/ha, flood test species, Pre-emergence, visual evaluation after twelve to sixteen days
  Plant response rating, Barnyardgrass (0 to 10 scale, 0 is no effect, 10 is complete control): 0
[11]; Rate 125 g/ha, under heading Pre-emergence, flood test species, visual evaluation after twelve to sixteen days
  Barnyardgrass plant response rating (0 to 10 scale, 0 is no effect, 10 is complete control): 0
[11]; Rate 250 g/ha, Pre-emergence (flood test species), scale 0 to 10, 0 is no effect, 10 is complete control
  Barnyardgrass plant response rating: 0
[11]; Rate 500 g/ha, Pre-emergence section of Table B, 0 to 10 scale (0 no effect, 10 complete control)
  Barnyardgrass plant response rating: 0
[4]; [21]
  Blackgrass plant response rating: 0
[4]; [22]
  Blackgrass plant response rating: 0
[4]; [23]
  Plant response rating, Blackgrass: 6
[4]; [24]
  Plant response rating, Blackgrass: 2
[4]; [25]
  Blackgrass plant response rating: 9
[4]; Preemergence, Rate 250 g/ha
  Blackgrass plant response rating (0 to 10 scale): 9
[4]; [26]
  Plant response rating, Blackgrass: 0
[8]; [21]
  Crabgrass plant response rating: 2
[8]; [22]
  Crabgrass plant response rating: 8
[8]; [23]
  Plant response rating, Crabgrass: 10
[8]; [24]
  Plant response rating, Crabgrass: 8
[8]; [25]
  Crabgrass plant response rating: 10
[8]; Preemergence, Rate 250 g/ha
  Crabgrass plant response rating (0 to 10 scale): 10
[8]; [27]
  Crabgrass plant response rating: 10
[8]; [26]
  Plant response rating, Crabgrass: 9
[9]; [21]
  Morningglory plant response rating: 2
[9]; [22]
  Morningglory plant response rating: 4
[9]; [24]
  Plant response rating, Morningglory: 0
[9]; [25]
  Morningglory plant response rating: 0
[9]; Preemergence, Rate 250 g/ha
  Morningglory plant response rating (0 to 10 scale): 0
[9]; [27]
  Morningglory plant response rating: 0
[9]; [26]
  Plant response rating, Morningglory: 4
